According to publication PMC10528180 (Foods, 2023):

Columns and labels:
[1] = target: T1, α-amylase (Sus scrofa, UniProt P00690); experiment: Fluorescence quenching experiment with α-amylase (Stern-Volmer, double logarithmic, Van 't Hoff); format: binding, porcine; settings: for Kd: Ka (binding constant) α-amylase
T1 construct: α-amylase (EC 232-565-6, powder, ≥5 units/mg solid) isolated from porcine pancreas; purchased Sigma-Aldrich Co; host or cells: porcine pancreas
T1 sequence (P00690 16-511): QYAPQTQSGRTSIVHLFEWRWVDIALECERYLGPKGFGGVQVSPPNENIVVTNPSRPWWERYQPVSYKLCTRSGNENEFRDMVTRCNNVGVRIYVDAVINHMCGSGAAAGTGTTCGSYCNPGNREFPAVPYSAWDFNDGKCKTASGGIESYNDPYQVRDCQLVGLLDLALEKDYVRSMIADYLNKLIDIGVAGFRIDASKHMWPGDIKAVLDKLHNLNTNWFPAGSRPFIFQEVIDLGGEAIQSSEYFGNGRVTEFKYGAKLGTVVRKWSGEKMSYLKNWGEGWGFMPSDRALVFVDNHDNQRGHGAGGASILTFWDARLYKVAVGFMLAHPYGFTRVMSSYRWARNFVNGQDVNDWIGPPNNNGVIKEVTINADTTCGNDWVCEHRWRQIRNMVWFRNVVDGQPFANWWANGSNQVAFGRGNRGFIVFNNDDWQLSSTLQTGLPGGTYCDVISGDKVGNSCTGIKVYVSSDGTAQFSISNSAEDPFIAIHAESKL
Description: Based on the previously described techniques, the fluorescence quenching experiment was somewhat modified. […] The 5.0 nm excitation and emission slit widths were predetermined.
The drop in fluorescence intensity brought on by the interaction of the quencher and the fluorescence group is what causes dynamic quenching. When the collision between the quencher and the fluorescence group intensifies as the temperature rises, the quenching constant rises. The quenching mechanism of the enzyme was further studied using the Stern–Volmer equation:(2) F0/F=1+Kqτ0Q=1+Ksv[Q], where Kq is the bimolecular quenching constant, F0 represents the fluorescence intensity of starch-digesting enzymes in the absence of inhibitors, F represents the fluorescence intensity of starch-digesting enzymes in the presence of inhibitors, and τ0 is the lifetime of the fluorophore in protein (about 10^−8 s).
By calculating the thermodynamic parameters of the quenching process, the binding affinity and the main force of the reaction process were evaluated. […] The thermodynamic parameters ΔH, ΔS, and ΔG represent enthalpy change, entropy change, and free energy change, respectively. […] The interaction forces in the reaction process can be roughly divided into four types: hydrophobic interaction, hydrogen bonding, electrostatic interaction, and van der Waals interaction.

[2] = target: T2, α-glucosidase (Saccharomyces cerevisiae, UniProt P53341); experiment: biochemical
T2 construct: purchased Sigma-Aldrich Co
Experimental: (§1) The other reagents used in this experiment are analytically pure reagents purchased from Sigma-Aldrich Co. (St. Louis, MI, USA) unless specified otherwise.
(§2) The in vitro α-glucosidase activity assay was determined using spectrophotometry, as previously reported, with only minor modifications. In phosphate buffer with a pH of 6.8, 0.5 U/mL of α-glucosidase and the appropriate quantity of p-nitrophenyl-D-glucopyranoside (pNGP) were produced. […] Gradient dilution with a phosphate-buffered solution was used to create sample solutions of various concentrations. First, different concentrations of compound (10 μL), an enzyme solution (40 μL), and potassium phosphate buffer (100 μL) were pre-incubated in 96-well plates at 37 °C for 10 min.
(§3) The enzymatic inhibitory activity of the tested compounds was calculated using the following formula: Inhibition %=[(Abs control−Abs sample)/Abs control]×100
(§4) The IC50 values of the tested compounds were calculated using nonlinear fitting (logit method).

[3] = target: T1, α-amylase; experiment: In vitro α-amylase activity assay (G3-CNP, absorbance 405 nm); format: biochemical, porcine
Experimental: as §1
as §2, with “modifications. A total” for “modifications. In phosphate buffer with a pH”, “of 5” for “of 6.8, 0.5”, “of α-amylase” for “of α-glucosidase”, “of 2-chloro-4-nitrophenyl α-D-maltotrioside (G3-CNP)” for “of p-nitrophenyl-D-glucopyranoside (pNGP)”
as §3, §4

T2 sequence (P53341 whole entry): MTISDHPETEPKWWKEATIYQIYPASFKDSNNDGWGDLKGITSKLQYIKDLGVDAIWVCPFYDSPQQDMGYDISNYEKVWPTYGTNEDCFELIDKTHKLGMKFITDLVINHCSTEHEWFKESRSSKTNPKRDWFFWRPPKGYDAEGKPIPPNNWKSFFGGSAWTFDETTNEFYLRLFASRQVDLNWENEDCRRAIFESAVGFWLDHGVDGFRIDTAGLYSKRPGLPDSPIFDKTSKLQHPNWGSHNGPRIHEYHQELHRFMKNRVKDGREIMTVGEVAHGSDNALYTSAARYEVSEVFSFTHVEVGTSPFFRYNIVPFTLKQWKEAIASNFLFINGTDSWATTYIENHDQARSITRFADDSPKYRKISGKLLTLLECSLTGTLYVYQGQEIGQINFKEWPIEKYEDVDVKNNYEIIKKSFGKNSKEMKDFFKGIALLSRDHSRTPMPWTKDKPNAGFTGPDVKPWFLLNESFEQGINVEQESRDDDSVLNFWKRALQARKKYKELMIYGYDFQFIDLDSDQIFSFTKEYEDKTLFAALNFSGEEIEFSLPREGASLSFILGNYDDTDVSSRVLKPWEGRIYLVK

O=c1c(O)c(-c2ccc(O)c(O)c2)oc2cc(O[C@@H]3O[C@H](CO)[C@@H](O)[C@H](O)[C@H]3O)cc(O)c12 [Quercimeritrin]
fluorescence quenching mechanism, α-amylase [1]: static quenching | Kd ([1]; T 300.15 K): 15.2 µM | Kd ([1]; T 305.15 K): 28.6 µM | Kd ([1]; T 310.15 K): 38.5 µM | Ksv (quenching constant) α-amylase ([1]; T 300.15 K): 0.13 ±0.03 10^5 /M | n (number of binding sites) α-amylase ([1]; T 300.15 K): 1.20 | Ksv (quenching constant) α-amylase ([1]; T 305.15 K): 0.15 ±0.02 10^5 /M | n (number of binding sites) α-amylase ([1]; T 305.15 K): 1.10 | Ka (binding constant) α-amylase ([1]; T 310.15 K): 0.26 ± 0.01 10^5 /M | Ksv (quenching constant) α-amylase ([1]; T 310.15 K): 0.18 ±0.04 10^5 /M | n (number of binding sites) α-amylase ([1]; T 310.15 K): 1.04 | ΔH α-amylase ([1]; Van 't Hoff, 300.15-310.15 K): -3.37 ± 0.93 kcal/mol | ΔS α-amylase ([1]; Van 't Hoff, 300.15-310.15 K): -153.31 ±34.89 J/mol/K | n (number of binding sites) α-amylase ([1]; text summary over temperatures): ~1 | IC50 [2]: 79.9 µM | inhibition at 500 µM ([2]; read-out: α-Glucosidase inhibition): 92% | IC50 [3]: > 250 µM | inhibition at 500 µM ([3]; at 500 µM, read-out: α-Amylase inhibition): 57%
